In patent publication US20070293399A1, “SUBSTITUTED DIAMINO-1,3,5-TRIAZINES, PROCESSES FOR THEIR PREPARATION AND THEIR USE AS HERBICIDES AND CROP GROWTH REGULATORS” (Bayer CropScience AG, priority 2006, published 2007):

What was measured:
[1] = test system: Sinapis alba, Echinochloa crus-galli, Lolium multiflorum, Stellaria media, Cyperus iria, Amaranthus retroflexus, Setaria viridis, Avena sativa, Lamium …; assay: Post-emergence herbicidal action (greenhouse pot test); type: in vivo; conditions: application rate of 1 kg and less of active substance per hectare; treated at three-leaf stage; scored visually after approx. 3 to 4 weeks in comparison to untreated controls
Protocol: Seeds or rhizome pieces of mono- and dicotyledonous weeds were placed in sandy loam in plastic pots, covered with soil and grown in a greenhouse under good growth conditions. Three weeks after the sowing, the test plants were treated at the three-leaf stage. The inventive compounds formulated as spray powders or as emulsion concentrates were sprayed onto the green plant parts in various dosages with an application rate of from 600 to 800 l/ha of water (converted). After the test plants had been left to stand in the greenhouse under optimal growth conditions for approx. 3 to 4 weeks, the action of the preparations was scored visually in comparison to untreated controls. The inventive compositions also had good post-emergence herbicidal activity against a wide spectrum of economically important gramineous and broadleaf weeds.

[2] = test system: Stellaria media, Lolium multiflorum, Amaranthus retroflexus, Sinapis alba, Avena sativa and Setaria viridis; assay: Pre-emergence herbicidal action (greenhouse pot test); type: in vivo; conditions: application rate of 1 kg or less of active substance per hectare; scored visually after 3 to 4 weeks in comparison to untreated controls
Excerpt: Seeds or rhizome pieces of mono- and dicotyledonous weed plants were placed in sandy loam in plastic pots and covered with soil. The inventive compounds, which have been formulated in the form of wettable powders or emulsion concentrates, were then applied to the surface of the covering soil as an aqueous suspension or emulsion in different dosages with an application rate of from 600 to 800 l/ha of water (converted).

Structure (SMILES) | herbicidal action against harmful plants in the post-emergence method [1] | herbicidal action against harmful plants in the pre-emergence method [2]
CC(=Nc1nc(N[C@@H]2CCCc3ccccc32)nc([C@@H](C)F)n1)N(C)C [Compound 2.159, N′-{4-[(1R)-1-Fluoroethyl]-6-[(1R)-1,2,3,4-tetrahydronaphth-1-ylamino]-1,3,5-triazin2-yl}-N,N-dimethylethanimide amide] | very good herbicidal action | very good herbicidal action
CC(=Nc1ncnc(N[C@H]2c3cc(C)ccc3C[C@@H]2C)n1)N(C)C [Compound 2.160] | very good herbicidal action | very good herbicidal action
Cc1ccc2c(c1)[C@H](Nc1nc(C)nc(N=CN(C)C)n1)[C@@H](C)C2 [Compound 2.170] | very good herbicidal action | very good herbicidal action
C[C@@H]1Cc2ccccc2[C@@H]1Nc1nc(N=CN(C)C)nc(C(F)F)n1 [Compound 2.175] | very good herbicidal action | very good herbicidal action
Cc1ccc2c(c1)[C@H](Nc1nc(N=CN(C)C)nc(C(F)F)n1)[C@H](C)C2 [Compound 2.176] | very good herbicidal action | very good herbicidal action
CC(=Nc1nc(N[C@H]2c3cc(C)ccc3C[C@H]2C)nc(C(F)F)n1)N(C)C [Compound 2.177] | very good herbicidal action | very good herbicidal action
Cc1ccc2c(c1)[C@H](Nc1nc(N=CN3CCCCC3)nc(C(F)F)n1)[C@H](C)C2 [Compound 2.181] | very good herbicidal action | very good herbicidal action
Cc1ccc2c(c1)[C@H](Nc1nc(C=O)nc(C(F)F)n1)[C@H](C)C2 [Compound 2.190] | very good herbicidal action | very good herbicidal action
CCOC(C)=Nc1nc(N[C@H]2c3cc(C)ccc3C[C@H]2C)nc(C(F)F)n1 [Compound 2.191] | very good herbicidal action | very good herbicidal action
C[C@@H](F)c1nc(C=O)nc(N[C@@H]2CCCc3ccccc32)n1 [Compound 2.193] | very good herbicidal action | very good herbicidal action
Cc1ccc2c(c1)[C@H](Nc1ncnc(C=O)n1)[C@H](C)C2 [Compound 2.194] | very good herbicidal action | very good herbicidal action
Cc1ccc2c(c1)[C@H](Nc1nc(C=O)nc([C@@H](C)F)n1)[C@H](C)C2 [Compound 2.195] | very good herbicidal action | very good herbicidal action
